{
  "source": "paper PMC5218480",
  "about": "(PLoS ONE, 2017)",
  "test_system": "MV-4-11 cells",
  "test": "Gene expression microarray analysis (Affymetrix PrimeView) and GSEA",
  "assay_type": "cell-based, human",
  "parameters": "RFU PODN (11730768_x_at) / Fold change /veh PODN (11730768_x_at) / RFU LINC00158 (11744669_a_at) / Fold change /veh LINC00158 (11744669_a_at) / RFU DUSP10 (11751237_a_at) / Fold change /veh DUSP10 (11751237_a_at) / RFU ID3 (11757404_x_at) / Fold change /veh ID3 (11757404_x_at) / RFU PLEKHG5 (11737974_s_at) / Fold change /veh PLEKHG5 (11737974_s_at) / RFU LRRC4B (11730491_at) / Fold change /veh LRRC4B (11730491_at) / RFU GIMAP4 (11747438_a_at) / Fold change /veh GIMAP4 (11747438_a_at) / RFU KRT8 (11758183_x_at) / Fold change /veh KRT8 (11758183_x_at) / RFU CNN1 (11734310_a_at) / Fold change /veh CNN1 (11734310_a_at) / RFU VPS37D (11726825_at) / Fold change /veh VPS37D (11726825_at) / RFU C10orf10 (11716522_x_at) / Fold change /veh C10orf10 (11716522_x_at) / RFU KIR2DL2 /// KIR2DL4 /// KIR2DL5A /// KIR2DL5B /// KIR2DS1 /// KIR2DS2 /// KIR2DS3 /// KIR2DS4 /// KIR3DL3 /// KIR3DL3 /// KIR3DS1 (11738374_at) / Fold change /veh KIR2DL2 /// KIR2DL4 /// KIR2DL5A /// KIR2DL5B /// KIR2DS1 /// KIR2DS2 /// KIR2DS3 /// KIR2DS4 /// KIR3DL3 /// KIR3DL3 /// KIR3DS1 (11738374_at) / RFU C1QL1 (11718748_at) / Fold change /veh C1QL1 (11718748_at) / RFU TMPRSS4 (11747572_a_at) / Fold change /veh TMPRSS4 (11747572_a_at) / RFU HAMP (11756126_x_at) / Fold change /veh HAMP (11756126_x_at) / RFU RNFT2 (11725882_a_at) / Fold change /veh RNFT2 (11725882_a_at) / RFU NR4A2 (11747474_a_at) / Fold change /veh NR4A2 (11747474_a_at) / RFU ABCC12 (11746883_a_at) / Fold change /veh ABCC12 (11746883_a_at) / RFU TMEM136 (11760407_x_at) / Fold change /veh TMEM136 (11760407_x_at) / RFU CLDN22 /// WWC2 (11732394_at) / Fold change /veh CLDN22 /// WWC2 (11732394_at) / RFU HLA-DPB1 (11760878_x_at) / Fold change /veh HLA-DPB1 (11760878_x_at) / RFU SPINT1 (11716480_a_at) / Fold change /veh SPINT1 (11716480_a_at) / RFU GAP43 (11754022_s_at) / Fold change /veh GAP43 (11754022_s_at) / RFU A4GNT (11735810_at) / Fold change /veh A4GNT (11735810_at) / RFU PRB3 (11715151_x_at) / Fold change /veh PRB3 (11715151_x_at) / RFU TUBB4B (11761932_at) / Fold change /veh TUBB4B (11761932_at) / RFU CAPN14 (11732068_a_at) / Fold change /veh CAPN14 (11732068_a_at) / RFU TMCC2 (11721928_a_at) / Fold change /veh TMCC2 (11721928_a_at) / RFU IRGQ (11745062_a_at) / Fold change /veh IRGQ (11745062_a_at) / RFU FAM174B (11720279_a_at) / Fold change /veh FAM174B (11720279_a_at) / RFU TMPRSS4 (11748680_a_at) / Fold change /veh TMPRSS4 (11748680_a_at) / RFU FAM212B (11763350_a_at) / Fold change /veh FAM212B (11763350_a_at) / RFU PLEKHG5 (11743358_a_at) / Fold change /veh PLEKHG5 (11743358_a_at) / RFU ZSCAN30 (11745921_a_at) / Fold change /veh ZSCAN30 (11745921_a_at) / RFU CMKLR1 (11741424_a_at) / Fold change /veh CMKLR1 (11741424_a_at) / RFU LOC101060620 /// MAPK8IP1 (11723275_at) / Fold change /veh LOC101060620 /// MAPK8IP1 (11723275_at) / RFU SPTSSB (11747773_x_at) / Fold change /veh SPTSSB (11747773_x_at) / RFU PRSS12 (11739890_at) / Fold change /veh PRSS12 (11739890_at) / RFU BIN1 (11741810_x_at) / Fold change /veh BIN1 (11741810_x_at) / RFU WNT11 (11732464_a_at) / Fold change /veh WNT11 (11732464_a_at) / RFU C10orf10 (11716521_a_at) / Fold change /veh C10orf10 (11716521_a_at) / RFU C5orf56 (11738089_at) / Fold change /veh C5orf56 (11738089_at) / RFU CYB561 (11721691_x_at) / Fold change /veh CYB561 (11721691_x_at) / RFU ANKRD19P (11752326_a_at) / Fold change /veh ANKRD19P (11752326_a_at) / RFU OR2T12 /// OR2T33 /// OR2T8 (11738714_s_at) / Fold change /veh OR2T12 /// OR2T33 /// OR2T8 (11738714_s_at) / RFU VCAN (11748164_a_at) / Fold change /veh VCAN (11748164_a_at) / RFU JSRP1 (11732532_at) / Fold change /veh JSRP1 (11732532_at) / RFU KRTAP10-11 (11738290_x_at) / Fold change /veh KRTAP10-11 (11738290_x_at) / RFU MYO3A (11730013_a_at) / Fold change /veh MYO3A (11730013_a_at) / RFU EBF3 (11725865_a_at) / Fold change /veh EBF3 (11725865_a_at) / RFU CAMK2N1 (11719241_x_at) / Fold change /veh CAMK2N1 (11719241_x_at) / RFU C5orf56 (11738088_a_at) / Fold change /veh C5orf56 (11738088_a_at) / RFU OLFML3 (11715873_a_at) / Fold change /veh OLFML3 (11715873_a_at) / RFU LOC100653217 /// NTM (11731650_a_at) / Fold change /veh LOC100653217 /// NTM (11731650_a_at) / RFU MAPK11 (11762145_a_at) / Fold change /veh MAPK11 (11762145_a_at) / RFU FIZ1 (11724087_x_at) / Fold change /veh FIZ1 (11724087_x_at) / RFU OASL (11726364_x_at) / Fold change /veh OASL (11726364_x_at) / RFU SOX15 (11748057_x_at) / Fold change /veh SOX15 (11748057_x_at) / RFU CD79A (11719716_a_at) / Fold change /veh CD79A (11719716_a_at) / RFU HIST1H1D (11736915_at) / Fold change /veh HIST1H1D (11736915_at) / RFU CASKIN2 (11723855_a_at) / Fold change /veh CASKIN2 (11723855_a_at) / RFU LOC730098 (11760151_x_at) / Fold change /veh LOC730098 (11760151_x_at) / RFU OR4N2 (11742367_at) / Fold change /veh OR4N2 (11742367_at) / RFU PRRT2 (11749266_a_at) / Fold change /veh PRRT2 (11749266_a_at) / RFU SNX32 (11753110_a_at) / Fold change /veh SNX32 (11753110_a_at) / RFU CDHR5 (11726645_a_at) / Fold change /veh CDHR5 (11726645_a_at) / RFU RCAN1 (11760418_a_at) / Fold change /veh RCAN1 (11760418_a_at) / RFU FAM167A (11723789_a_at) / Fold change /veh FAM167A (11723789_a_at) / RFU FAM26E (11764081_at) / Fold change /veh FAM26E (11764081_at) / RFU ISYNA1 (11749810_s_at) / Fold change /veh ISYNA1 (11749810_s_at) / RFU ACY1 (11761880_at) / Fold change /veh ACY1 (11761880_at) / RFU 11764098_at / Fold change /veh 11764098_at / RFU SAMD14 (11745864_x_at) / Fold change /veh SAMD14 (11745864_x_at) / RFU NPB (11741838_a_at) / Fold change /veh NPB (11741838_a_at) / RFU TMPRSS6 (11731388_a_at) / Fold change /veh TMPRSS6 (11731388_a_at) / RFU KRTAP10-2 (11738614_at) / Fold change /veh KRTAP10-2 (11738614_at) / RFU ARHGAP8 /// PRR5-ARHGAP8 (11727945_x_at) / Fold change /veh ARHGAP8 /// PRR5-ARHGAP8 (11727945_x_at) / RFU KRTAP5-7 /// NADSYN1 (11734609_at) / Fold change /veh KRTAP5-7 /// NADSYN1 (11734609_at) / RFU RASL12 (11751679_a_at) / Fold change /veh RASL12 (11751679_a_at) / RFU CDKN2B (11736163_a_at) / Fold change /veh CDKN2B (11736163_a_at) / RFU PRF1 (11729649_at) / Fold change /veh PRF1 (11729649_at) / RFU, ZNF638 /// ZNF638-IT1 / Fold change vs veh, ZNF638 /// ZNF638-IT1 / RFU, PANK3 / Fold change vs veh, PANK3 / RFU, SH3YL1 / Fold change vs veh, SH3YL1 / RFU, ZEB2 / Fold change vs veh, ZEB2 / RFU, NRIP1 / Fold change vs veh, NRIP1 / RFU, PTTG1IP / Fold change vs veh, PTTG1IP / RFU, CAPN2 / Fold change vs veh, CAPN2 / RFU, MED14 / Fold change vs veh, MED14 / RFU, SNORA58 / Fold change vs veh, SNORA58 / RFU, C1orf63 / Fold change vs veh, C1orf63 / RFU, LRRFIP1 / Fold change vs veh, LRRFIP1 / RFU, NDUFAF7 / Fold change vs veh, NDUFAF7 / RFU, SLC12A2 / Fold change vs veh, SLC12A2 / RFU, IBTK / Fold change vs veh, IBTK / RFU, ESF1 / Fold change vs veh, ESF1 / Fold change vs veh, TMEM50B / RFU, TAOK1 / Fold change vs veh, TAOK1 / RFU, ACBD3 / Fold change vs veh, ACBD3 / RFU, TMA16 / Fold change vs veh, TMA16 / RFU, RWDD3 / Fold change vs veh, RWDD3 / RFU, BCAT1 / Fold change vs veh, BCAT1 / RFU, EDEM3 / Fold change vs veh, EDEM3 / RFU, TMEM33 / Fold change vs veh, TMEM33 / RFU, WDR75 / Fold change vs veh, WDR75 / RFU, AHCTF1 / Fold change vs veh, AHCTF1 / RFU, TFRC / Fold change vs veh, TFRC / RFU, ZDHHC17 / Fold change vs veh, ZDHHC17 / RFU, NOM1 / Fold change vs veh, NOM1 / RFU, ARL8B / Fold change vs veh, ARL8B / RFU, ZBTB11 / Fold change vs veh, ZBTB11 / RFU, TAMM41 / Fold change vs veh, TAMM41 / RFU, KIAA1704 /// LOC100996395 / Fold change vs veh, KIAA1704 /// LOC100996395 / RFU, ING1 / Fold change vs veh, ING1 / RFU, TRMT61B / Fold change vs veh, TRMT61B / RFU, FUBP3 / Fold change vs veh, FUBP3 / RFU, TP53 / Fold change vs veh, TP53 / RFU, TNKS2 / Fold change vs veh, TNKS2 / RFU, ZFP14 / Fold change vs veh, ZFP14 / RFU, ACTR2 / Fold change vs veh, ACTR2 / RFU, PPP3R1 / Fold change vs veh, PPP3R1 / RFU, PIK3R1 / Fold change vs veh, PIK3R1 / RFU, HNRNPA1 / Fold change vs veh, HNRNPA1 / RFU, RNF170 / Fold change vs veh, RNF170 / RFU, ZNF28 / Fold change vs veh, ZNF28 / RFU, RNGTT / Fold change vs veh, RNGTT / RFU, OGT / Fold change vs veh, OGT / RFU, BRD1 / Fold change vs veh, BRD1 / RFU, MARS / Fold change vs veh, MARS / RFU, ZNF655 / Fold change vs veh, ZNF655 / RFU, FAHD1 / Fold change vs veh, FAHD1 / RFU, BDP1 / Fold change vs veh, BDP1 / RFU, LRRCC1 / Fold change vs veh, LRRCC1 / RFU, ARID1A / Fold change vs veh, ARID1A / RFU, ZNF146 / Fold change vs veh, ZNF146 / RFU, ZNF330 / Fold change vs veh, ZNF330 / RFU, GPN3 / Fold change vs veh, GPN3 / RFU, C9orf123 / Fold change vs veh, C9orf123 / RFU, N4BP2L2 / Fold change vs veh, N4BP2L2 / RFU, ARFIP1 / Fold change vs veh, ARFIP1 / RFU, FAM179B / Fold change vs veh, FAM179B / RFU, BCL10 / Fold change vs veh, BCL10 / RFU, UHRF1BP1L / Fold change vs veh, UHRF1BP1L / RFU, BET1 / Fold change vs veh, BET1 / RFU, CNOT2 / Fold change vs veh, CNOT2 / RFU, ZNF268 / Fold change vs veh, ZNF268 / Fold change vs veh, ZNF507 / RFU, DGCR2 / Fold change vs veh, DGCR2 / RFU, WDSUB1 / Fold change vs veh, WDSUB1 / Fold change vs veh, HSP90B1 /// MIR3652 / RFU, ADSS / Fold change vs veh, ADSS / RFU, GK / Fold change vs veh, GK / RFU, ZNF148 / Fold change vs veh, ZNF148 / RFU, TAF9 / Fold change vs veh, TAF9 / RFU, SLC1A5 / Fold change vs veh, SLC1A5 / RFU, SLMO2 / Fold change vs veh, SLMO2 / RFU, ABCC4 / Fold change vs veh, ABCC4 / RFU, LOC101060439 /// RAP1B / Fold change vs veh, LOC101060439 /// RAP1B / RFU, RFX7 / Fold change vs veh, RFX7 / RFU, GTPBP10 / Fold change vs veh, GTPBP10 / RFU, CNEP1R1 / Fold change vs veh, CNEP1R1 / RFU, BIVM-ERCC5 /// ERCC5 / Fold change vs veh, BIVM-ERCC5 /// ERCC5 / RFU, ILF3 / Fold change vs veh, ILF3 / RFU 11762660_at / Fold change /veh 11762660_at / RFU VCAN (11757783_s_at) / Fold change /veh VCAN (11757783_s_at) / RFU DDX43 (11728927_at) / Fold change /veh DDX43 (11728927_at) / RFU KRT8 (11758188_x_at) / Fold change /veh KRT8 (11758188_x_at) / RFU NKD1 (11759106_at) / Fold change /veh NKD1 (11759106_at) / RFU SRD5A1 (11742802_a_at) / Fold change /veh SRD5A1 (11742802_a_at) / RFU TPSAB1 /// TPSB2 (11721975_s_at) / Fold change /veh TPSAB1 /// TPSB2 (11721975_s_at) / RFU GSTM3 (11746129_a_at) / Fold change /veh GSTM3 (11746129_a_at) / RFU IL23R (11737362_x_at) / Fold change /veh IL23R (11737362_x_at) / RFU TMEM51 (11727254_a_at) / Fold change /veh TMEM51 (11727254_a_at) / RFU PIWIL2 (11732686_x_at) / Fold change /veh PIWIL2 (11732686_x_at) / RFU ORM1 (11744905_x_at) / Fold change /veh ORM1 (11744905_x_at) / RFU CCDC152 (11743942_at) / Fold change /veh CCDC152 (11743942_at) / RFU ECM1 (11717891_a_at) / Fold change /veh ECM1 (11717891_a_at) / RFU IL23R (11748794_a_at) / Fold change /veh IL23R (11748794_a_at) / RFU TNFAIP8L3 (11732012_x_at) / Fold change /veh TNFAIP8L3 (11732012_x_at) / RFU MBOAT4 (11741988_at) / Fold change /veh MBOAT4 (11741988_at) / RFU 11764193_at / Fold change /veh 11764193_at / RFU TMEM53 (11763286_at) / Fold change /veh TMEM53 (11763286_at) / RFU MAGEB2 (11727129_at) / Fold change /veh MAGEB2 (11727129_at) / RFU TMEM200A (11744735_a_at) / Fold change /veh TMEM200A (11744735_a_at) / RFU CCDC152 (11751479_a_at) / Fold change /veh CCDC152 (11751479_a_at) / RFU FAM211A (11726209_a_at) / Fold change /veh FAM211A (11726209_a_at) / RFU RGS16 (11746705_a_at) / Fold change /veh RGS16 (11746705_a_at) / RFU VCAN (11755009_s_at) / Fold change /veh VCAN (11755009_s_at) / RFU RHOB (11743442_s_at) / Fold change /veh RHOB (11743442_s_at) / RFU RGS16 (11720943_a_at) / Fold change /veh RGS16 (11720943_a_at) / RFU RGS16 (11720944_at) / Fold change /veh RGS16 (11720944_at) / RFU, VPS4B / Fold change vs veh, VPS4B / RFU, CREB1 / Fold change vs veh, CREB1 / RFU, DNAJC13 / Fold change vs veh, DNAJC13 / RFU, GNAQ / Fold change vs veh, GNAQ / RFU, CDK5R1 / Fold change vs veh, CDK5R1 / RFU, ZRANB3 / Fold change vs veh, ZRANB3 / RFU, CUL4A / Fold change vs veh, CUL4A / RFU, CCNY / Fold change vs veh, CCNY / RFU, UFL1 / Fold change vs veh, UFL1 / RFU, COG3 / Fold change vs veh, COG3 / RFU, DIAPH2 / Fold change vs veh, DIAPH2 / RFU, SKA2 / Fold change vs veh, SKA2 / RFU, AFF3 / Fold change vs veh, AFF3 / RFU, LMF1 / Fold change vs veh, LMF1 / RFU, IPO11 / Fold change vs veh, IPO11 / RFU, DFFB / Fold change vs veh, DFFB / RFU, FOXP1 / Fold change vs veh, FOXP1 / RFU, CARD8 / Fold change vs veh, CARD8 / RFU, STRN3 / Fold change vs veh, STRN3 / RFU, ADK / Fold change vs veh, ADK / RFU, RASSF2 / Fold change vs veh, RASSF2 / RFU, WIPF1 / Fold change vs veh, WIPF1 / RFU, LARP1B / Fold change vs veh, LARP1B / RFU, RASA1 / Fold change vs veh, RASA1 / RFU, RB1 / Fold change vs veh, RB1 / RFU, PPFIA1 / Fold change vs veh, PPFIA1 / RFU, MAT2A / Fold change vs veh, MAT2A / RFU, CCT5 / Fold change vs veh, CCT5 / RFU, WDR92 / Fold change vs veh, WDR92 / RFU, CUX1 / Fold change vs veh, CUX1 / RFU, TTC7A / Fold change vs veh, TTC7A / RFU, TMEM135 / Fold change vs veh, TMEM135 / RFU, DEPTOR / Fold change vs veh, DEPTOR / RFU, CPM / Fold change vs veh, CPM / RFU, DNAJB6 / Fold change vs veh, DNAJB6 / RFU, CACNA2D3 / Fold change vs veh, CACNA2D3 / RFU, DTX4 / Fold change vs veh, DTX4 / RFU, TFCP2 / Fold change vs veh, TFCP2 / RFU, GMCL1 /// GMCL1P1 / Fold change vs veh, GMCL1 /// GMCL1P1 / RFU, AEBP2 / Fold change vs veh, AEBP2 / RFU, SNHG1 /// SNORD22 /// SNORD25 /// SNORD26 /// SNORD27 /// SNORD28 /// SNORD29 /// SNORD31 / Fold change vs veh, SNHG1 /// SNORD22 /// SNORD25 /// SNORD26 /// SNORD27 /// SNORD28 /// SNORD29 /// SNORD31 / Fold change (Aza/veh), C12orf56 (ProbeSet 11735607_a_at) / Fold change (ACY-1035/veh), C12orf56 (ProbeSet 11735607_a_at) / Fold change (Aza/veh), FGFR1OP (ProbeSet 11751329_s_at) / Fold change (ACY-1035/veh), FGFR1OP (ProbeSet 11751329_s_at) / Fold change (Aza/veh), VPS36 (ProbeSet 11739960_a_at) / Fold change (ACY-1035/veh), VPS36 (ProbeSet 11739960_a_at) / RFU SYPL1 (11715823_x_at) / Fold change /veh SYPL1 (11715823_x_at) / RFU IGFBP7 (11715501_s_at) / Fold change /veh IGFBP7 (11715501_s_at) / RFU REEP3 (11722064_at) / Fold change /veh REEP3 (11722064_at) / RFU IGLL1 (11728026_x_at) / Fold change /veh IGLL1 (11728026_x_at): dose or concentration left out as unconfirmed",
  "settings": "ProbeSet 11749781_s_at; LIST B",
  "data": [
    {"smiles": "Nc1ccc(-c2cccs2)cc1NC(=O)c1ccc2c(c1)cc(C1CC1)n2CCN1CCOCC1", "note": "[ACY-1035]", "values": [
      {"measurement": "RFU, BCAT1", "result": 11.38, "unit": "RFU"}
    ]}
  ]
}
